Measurements published in ChEMBL document CHEMBL1201862, “PubChem BioAssay data set” (2004).
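Following 48 hours of exposure in 96-well plates, responses at five concentrations were used to interpolate endpoints linearly. Here, GI50 denotes the concentration required for 50% inhibition of growth.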 The source made the active and inactive calls. No stated cut-off is given here; in the data, active = GI50 up to about 1.1 µM and inactive = higher.

How the values were obtained:
Assay in all cases: inhibition of tumour cell growth, NCI panel, 48 h
A549 = test system: A549
ACHN = test system: ACHN
CCRF-CEM = test system: CCRF-CEM
COLO 205 = test system: COLO 205
HCT-15 = test system: HCT-15
HT-29 = test system: HT-29
LOX IMVI = test system: LOX IMVI
NCI-H23 = test system: NCI-H23
NCI-H460 = test system: NCI-H460
OVCAR-5 = test system: OVCAR-5
OVCAR-8 = test system: OVCAR-8
SF-268 = test system: SF-268
SK-MEL-28 = test system: SK-MEL-28
SK-MEL-2 = test system: SK-MEL-2
SK-MEL-5 = test system: SK-MEL-5
SK-OV-3 = test system: SK-OV-3
SW-620 = test system: SW-620
U-251 = test system: U-251
UO-31 = test system: UO-31
OVCAR-4 = test system: OVCAR-4

SMILES	GI50 (A549)	GI50 (ACHN)	GI50 (CCRF-CEM)	GI50 (COLO 205)	GI50 (HCT-15) [µM]	GI50 (HT-29)	GI50 (LOX IMVI)	GI50 (NCI-H23)	GI50 (NCI-H460)	GI50 (OVCAR-5)	GI50 (OVCAR-8)	GI50 (SF-268)	GI50 (SK-MEL-28)	GI50 (SK-MEL-2)	GI50 (SK-MEL-5)	GI50 (SK-OV-3)	GI50 (SW-620)	GI50 (U-251)	GI50 (UO-31)	GI50 (OVCAR-4)
COC[C@@H](Cc1ccc(OC)c(OC)c1)[C@@H](COC)Cc1ccc(OC)c(OC)c1	> 100 µM (inactive)	> 100 µM (inactive)	56.5 µM (inactive)	> 100 µM (inactive)	> 100	> 100 µM (inactive)	> 100 µM (inactive)	> 100 µM (inactive)	> 100 µM (inactive)	> 100 µM (inactive)	> 100 µM (inactive)	> 100 µM (inactive)	> 100 µM (inactive)	> 100 µM (inactive)	51.9 µM (inactive)	> 100 µM (inactive)	> 100 µM (inactive)	> 100 µM (inactive)	> 100 µM (inactive)	–
O=C(NNC(=O)c1nsc2ccccc12)c1ccc(Cl)cc1	21.7 µM (inactive)	> 100 µM (inactive)	19 µM (inactive)	23.7 µM (inactive)	18.2	20.3 µM (inactive)	18.1 µM (inactive)	21.9 µM (inactive)	> 100 µM (inactive)	20.4 µM (inactive)	29.2 µM (inactive)	17.7 µM (inactive)	16.9 µM (inactive)	22.3 µM (inactive)	23.8 µM (inactive)	–	35.4 µM (inactive)	16.7 µM (inactive)	18.9 µM (inactive)	> 10 µM (inactive)
CN(C)/N=N/c1ccc([N+](=O)[O-])cc1C(N)=O	> 100 µM (inactive)	–	> 100 µM (inactive)	> 100 µM (inactive)	> 100	> 100 µM (inactive)	> 100 µM (inactive)	> 100 µM (inactive)	> 100 µM (inactive)	> 100 µM (inactive)	> 100 µM (inactive)	> 100 µM (inactive)	> 100 µM (inactive)	> 100 µM (inactive)	> 100 µM (inactive)	> 100 µM (inactive)	> 100 µM (inactive)	> 100 µM (inactive)	> 82 µM (inactive)	> 100 µM (inactive)
CCCn1cc2c3c(cccc31)C1C=C(C)CN(C)C1C2 (stereo not drawn)	34.5 µM (inactive)	–	3.67 µM (inactive)	9.98 µM (inactive)	17.4	12.9 µM (inactive)	13.6 µM (inactive)	25.5 µM (inactive)	12 µM (inactive)	25.2 µM (inactive)	29.7 µM (inactive)	29 µM (inactive)	18.1 µM (inactive)	29.1 µM (inactive)	11.3 µM (inactive)	37.3 µM (inactive)	23.4 µM (inactive)	19 µM (inactive)	9.71 µM (inactive)	10.1 µM (inactive)
CCOC(=O)/C(=C/c1cn(C(C)=O)c2ccccc12)P(=O)(OC)OC	33.2 µM (inactive)	31.4 µM (inactive)	30 µM (inactive)	> 10 µM (inactive)	29.7	40.5 µM (inactive)	25.3 µM (inactive)	33.8 µM (inactive)	24.4 µM (inactive)	40.6 µM (inactive)	46.7 µM (inactive)	–	37.2 µM (inactive)	31.1 µM (inactive)	23.1 µM (inactive)	25.1 µM (inactive)	41.8 µM (inactive)	30.4 µM (inactive)	–	33.4 µM (inactive)
CCCCCCCCCCCC1=NCCN1	90.6 µM (inactive)	> 100 µM (inactive)	22.9 µM (inactive)	19.4 µM (inactive)	15.1	> 100 µM (inactive)	3.75 µM (inactive)	93.8 µM (inactive)	30.1 µM (inactive)	–	> 100 µM (inactive)	> 100 µM (inactive)	> 100 µM (inactive)	–	38.6 µM (inactive)	> 100 µM (inactive)	34.7 µM (inactive)	49.9 µM (inactive)	32.1 µM (inactive)	14.8 µM (inactive)
CC(=O)/N=C1/N(/C=C2\C(=O)Oc3ccccc3C2=O)C(=O)/C(=C/c2ccc(NC(C)=O)cc2)N1C	> 100 µM (inactive)	> 100 µM (inactive)	> 100 µM (inactive)	> 100 µM (inactive)	> 100	> 100 µM (inactive)	> 100 µM (inactive)	> 100 µM (inactive)	> 100 µM (inactive)	> 100 µM (inactive)	> 100 µM (inactive)	> 100 µM (inactive)	> 100 µM (inactive)	> 100 µM (inactive)	> 100 µM (inactive)	> 100 µM (inactive)	> 100 µM (inactive)	> 100 µM (inactive)	–	> 100 µM (inactive)
COc1cccc(C2C(C(=O)O)=C(CO)Oc3cc4c(cc32)OCO4)c1 (stereo not drawn)	–	> 100 µM (inactive)	> 100 µM (inactive)	> 100 µM (inactive)	> 100	> 100 µM (inactive)	> 100 µM (inactive)	> 100 µM (inactive)	> 100 µM (inactive)	–	> 100 µM (inactive)	> 100 µM (inactive)	> 100 µM (inactive)	> 100 µM (inactive)	> 100 µM (inactive)	> 100 µM (inactive)	> 100 µM (inactive)	> 100 µM (inactive)	> 100 µM (inactive)	–
